These results are taken from patent publication US10577618B2, “Class of glyphosate resistance genes” (Dow AgroSciences LLC, priority 2012, dated 2020).

One assay concerns T0 corn plants. Description: Post-emergence glyphosate tolerance of T0 dgt-28 corn (Table 19). The assay is classed as in vivo, Zea mays. The method, then: Zea mays dgt-28 transformation events (T0) were allowed to acclimate in the greenhouse and were grown until plants had transitioned from tissue culture to greenhouse growing conditions (i.e., 2-4 new, normal looking leaves had emerged from the whorl). Plants were grown at 27° C. under 16 hour light:8 hour dark conditions in the greenhouse. The plants were then treated with commercial formulations of DURANGO DMA™ (containing the herbicide glyphosate) with the addition of 2% w/v ammonium-sulfate. Herbicide applications were made with a track sprayer at a spray volume of 187 L/ha, 50-cm spray height. T0 plants were sprayed with a range of glyphosate from 280-4480 g ae/ha glyphosate, which is capable of significant injury to untransformed corn lines. A lethal dose is defined as the rate that causes >95% injury to the B104 inbred.
T0 events of dgt-28 linked with TraP4, TraP5, TraP8 and TraP23 were generated by Agrobacterium transformation and were allowed to acclimate under controlled growth chamber conditions until 2-4 new, normal looking leaves had emerged from the whorl. Plants were assigned individual identification numbers and sampled for copy number analyses of both dgt-28 and aad-1. Based on copy number analyses, plants were selected for protein expression analyses. […]

Another assay relates to T1 wheat. Description: Detailed phenotypic screen of T1 wheat events at different glyphosate dose rates (Tables 41, 42). Particulars: untransformed donor wheat plants. The assay is classed as in vivo, Triticum aestivum. As for the experimental part: Four replicates of 12 T1 seeds per selected event and eight replicates (12 seeds each) of the untransformed donor wheat line Bobwhite MPB26RH were sown in 85 mm pots and grown to the 2-leaf stage under well-watered conditions at 25° C. with supplementary lighting providing a 12 hour photoperiod. The pots were placed in a randomised design to allow environmental effects to be removed during data analysis. At the 2-leaf stage, plant length and number of leaves was recorded for each plant before spraying with glyphosate. The first, second, third and fourth replicate of T1 plants for each selected event and the untransformed donor wheat line were sprayed at a dose rate of 420, 840, 1680 and 3360 g ai/ha, respectively. The fifth, sixth, seventh and eighth replicate of untransformed donor wheat line (total 48 plants) were not sprayed. At 7, 14 and 21 days after spraying, the plants were scored for plant length, number of leaves and phenotypic response to glyphosate using the scoring scale in Table 37. Any morphological abnormalities were also recorded. For scoring, the scorer was “blinded” with regard to plant genotype and spray dose rate to prevent scoring bias. Plants with delayed germination and poor establishment (criteria: plant length <6 cm) at the pre-spray scoring were excluded from subsequent analyses.
This differentiation was maximal at 21 days and was observed across all glyphosate dose rates. Table 41. To assess the tolerance of the transgenic events to glyphosate at each spray dose rate, null T1 plants (i.e. plants not carrying the transgene) were excluded from subsequent analyses. T1 plants with a response score of less than three at 21 days after spraying were considered to have the null genotype. […]

Where [1] appears, read: Replicate 1, 420 g ai/ha, 10 plants at pre-spray scoring.
The mark [2] stands for this setting: Replicate 2, 840 g ai/ha, 10 plants at pre-spray scoring.
The mark [3] stands for this setting: Replicate 3, 1680 g ai/ha, 11 plants at pre-spray scoring.
The mark [4] stands for this setting: Replicate 4, 3360 g ai/ha, 10 plants at pre-spray scoring.

The structures appear in SMILES notation.

On to `O=C(O)CNCP(=O)(O)O` [glyphosate, N-(phosphonomethyl) glycine], for which the “non-transformed plants controlled with glyphosate at concentrations as low as” value with T0 corn plants was not below 280 g ae/ha. Moreover, the “No. surviving plants at 14 days after spraying” value with T1 wheat (setting [1]) is reported as 0; with T1 wheat (setting [2]), 3; in the assay with T1 wheat (setting [3]) it was 0; with T1 wheat (setting [4]), 1. The “No. surviving plants at 21 days after spraying” value in the assay with T1 wheat (setting [1]), in the assay with T1 wheat (setting [2]), in the assay on T1 wheat (setting [3]) and in the assay with T1 wheat (setting [4]) was 0 throughout.
